From patent US11865176B2, “Compositions and methods of modulating anti-tumor immunity” (Dana-Farber Cancer Institute, Inc., priority 2016, dated 2024)
Like-named read-outs stand apart in the source and are kept apart here.

Tested on: PD-1-overexpressing Jurkat cells
Experiment: Small molecule screen: IL2 secretion (AlphaLISA) from stimulated PD-1-overexpressing Jurkat cells
Type: cell-based, human
Procedure, shortened: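 Cells (100,000/well) with compound at 3.3 μM final, stimulated by α-CD3/α-CD28/α-PD-1 Dynabeads at an 8:1 bead:cell ratio. IL2 in supernatants measured by AlphaLISA. Hits scored ≥3 SD from the mean of DMSO-treated, α-PD-1-bead-stimulated controls.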

[1] = IL2 level, replicate 1, 3.3 μM compound, α-CD3/α-CD28/α-PD-1 beads
[2] = IL2 level, replicate 2, 3.3 μM compound, α-CD3/α-CD28/α-PD-1 beads
[3] = average of replicate Z scores, 3.3 μM compound

Molecule | Zscore_1 [1] | Zscore_2 [2] | Zscore_AVG [3] | Zscore_1 | Zscore_2 | Zscore_AVG
N#CCCc1ccc2c(c1)-c1[nH]c3ccc([N+](=O)[O-])cc3c1CC(=O)N2 [Alsterpaullone, 2-Cyanoethyl] | −5.269 | −7.447 | −6.358 |  |  | 
p38 MAP Kinase Inhibitor VIII | −1.144 | −1.448 | −1.296 |  |  | 
G&omul; 7874, Hydrochloride | −4.465 | −6.385 | −5.425 |  |  | 
O=C1Cc2c([nH]c3ccc(Br)cc23)-c2ncccc2N1 [1-Azakenpaullone] | 0.418 | 1.913 | 1.165 |  |  | 
O=C1NC(=O)C(c2cn(CCCn3ccnc3)c3ccccc23)=C1Nc1ccccc1 [PKCb Inhibitor] | −3.512 | −5.04 | −4.276 |  |  | 
CCc1nc(-c2ccc(OC)cc2)[nH]c1-c1ccncc1 [SB 202474, Neg Con for p38 MAPK Inhibition Studies] | −2.475 | −0.6025 | −1.539 |  |  | 
Cc1cccc(-c2[nH]c(C(C)(C)C)nc2-c2ccc3c(c2)OCO3)n1 [TGF-b RI Inhibitor III] | −0.4096 | −0.6585 | −0.5341 |  |  | 
c1nc2nc(Nc3ccc(N4CCOCC4)cc3)nc(NC3CCCCC3)c2[nH]1 [Reversine] | −3.512 | −5.332 | −4.422 |  |  | 
Oc1ccc2ccccc2c1SSc1c(O)ccc2ccccc12 [p21-Activated Kinase Inhibitor III, IPA-3] | −0.461 | 0.6426 | 0.09079 |  |  | 
Nc1ncnc2c1c(I)cn2[C@@H]1O[C@H](CO)[C@@H](O)[C@H]1O [5-Iodotubercidin] | −4.799 | −6.213 | −5.506 |  |  | 
CC(C)(C)n1nc(Cc2cccc3ccccc23)c2c(N)ncnc21 [PP1 Analog II, 1NM-PP1] | −0.9751 | 0.08497 | −0.4451 |  |  | 
O=C1Cc2c([nH]c3ccc(Br)cc23)-c2ccccc2N1 [Kenpaullone] | −0.7695 | −1.747 | −1.258 |  |  | 
PDK1/Akt/Flt Dual Pathway Inhibitor | −10.05 | −10.59 | −10.32 |  |  | 
O=[N+]([O-])c1ccc(CNc2nc(NCc3cccc(C(F)(F)F)c3)nc3nc[nH]c23)cc1 [IP3K Inhibitor] | 1.006 | −0.0969 | 0.4547 |  |  | 
CaMKII Inhibitor, CK59 | −0.8337 | −0.5161 | −0.6749 |  |  | 
N#Cc1cnc2cnc(NCc3cccnc3)cc2c1Nc1ccc(F)c(Cl)c1 [Tpl2 Kinase Inhibitor] | −2.9 | −5.972 | −4.436 |  |  | 
PI 3-K&gamme;/CKII Inhibitor | −0.8209 | −0.5789 | −0.6999 |  |  | 
N/C(=N\[N+](=O)[O-])N/N=C\c1ccc(-c2cccc([N+](=O)[O-])c2)o1 [ERK Inhibitor III] | 0.9783 | 2.555 | 1.767 |  |  | 
NC(=O)Nc1sc(-c2ccccc2)cc1C(N)=O [IKK-2 Inhibitor VI] | −5.576 | −7.212 | −6.394 |  |  | 
O=c1c(O)c(-c2ccc(O)c(O)c2)oc2cc(O)c(O)c(O)c12 [Quercetagetin] | −1.427 | −1.66 | −1.543 |  |  | 
MEK1/2 Inhibitor II | −8.274 | −7.766 | −8.02 |  |  | 
Nc1nc(Nc2ccc(S(N)(=O)=O)cc2)nn1C(=O)c1c(F)cccc1F [Aurora Kinase/Cdk Inhibitor] | −1.131 | −3.054 | −2.093 |  |  | 
Cc1cc(C(C)Nc2ccccc2)c2nc(N3CCOCC3)cc(=O)n2c1 (stereo not drawn) [PI 3-Kβ Inhibitor VI, TGX-221] | 2.504 | 2.528 | 2.516 |  |  | 
Nc1[nH]nc2nc3ccccc3nc12 [Cdk1/5 Inhibitor] | −2.414 | −4.695 | −3.555 |  |  | 
NC(=O)c1cccc(-c2cc(Nc3ccc(OC(F)(F)F)cc3)ncn2)c1 [Bcr-abl Inhibitor] | 1.402 | 5.274 | 3.338 |  |  | 
CCOc1cc2ncnc(Nc3cccc(Br)c3)c2cc1OCC [Compound 56] | −1.072 | −2.222 | −1.647 |  |  | 
O=C(CCCc1ccc(-c2ccccc2F)cc1)Nc1ccc(O)cc1 [MK2a Inhibitor] | −1.455 | −2.305 | −1.88 |  |  | 

Molecule | Zscore_1 [1] | Zscore_2 [2] | Zscore_AVG [3] | Zscore_1 | Zscore_2 | Zscore_AVG
Cl.NCCCn1cc(C2=C(c3c[nH]c4ccccc34)C(=O)NC2=O)c2ccccc21 [Bisindolylmaleimide III, Hydrochloride] | −3.661 | −5.093 | −4.377 |  |  | 
COc1ccc(S(=O)(=O)Nc2ccccc2CN(C)C/C=C/c2ccc(Cl)cc2)cc1 [KN-92] | 0.5356 | 0.3912 | 0.4634 |  |  | 
Nc1n[nH]c(N)c1N=Nc1ccc(O)cc1 [Cdk9 Inhibitor II] | −0.7951 | 0.1385 | −0.3283 |  |  | 
O=C1NC(=O)c2c1c1c3ccccc3[nH]c1c1[nH]c3ccccc3c21 [Arcyriaflavin A, Synthetic] | 3.889 | 5.674 | 4.782 |  |  | 
O=C1NC(=NCc2cccs2)S/C1=C\c1ccc2ncccc2c1 [Cdk1 Inhibitor IV, RO-3306] | −4.188 | −2.228 | −3.208 |  |  | 
CS(=O)(=O)c1ccc(-c2nc(-c3ccc(F)cc3)c(-c3ccncc3)[nH]2)cc1 [SB 203580, Sulfone] |  |  |  | 2.85 | −0.6448 | 1.103
PIM1 Kinase Inhibitor II | −1.398 | −0.8562 | −1.127 |  |  | 
VEGFR Tyrosine Kinase Inhibitor IV | −0.8723 | −2.305 | −1.589 |  |  | 
COc1ccc(CNC(=O)Nc2ncc([N+](=O)[O-])s2)cc1 [GSK-3b Inhibitor VIII] | 1.017 | 0.5916 | 0.8042 |  |  | 
Nc1nccc(-c2c(-c3ccc(F)cc3)ncn2C2CCNCC2)n1 [SB 220025] | 14.69 | 27.59 | 21.14 |  |  | 
Cl.Cl.Nc1ncnc2nc(-c3ccc(N4CCOCC4)nc3)cc(-c3cccc(Br)c3)c12 [Adenosine Kinase Inhibitor] | 0.3983 | 0.5922 | 0.4953 |  |  | 
Nc1nc(Nc2ccc(S(N)(=O)=O)cc2)nn1C(=S)Nc1c(F)cccc1F [Cdk1/2 Inhibitor III] | −10.55 | −11.64 | −11.1 |  |  | 
CC[C@H](CO)Nc1nc(NCc2ccccc2)c2ncn(C(C)C)c2n1 [Roscovitine] | −1.54 | −2.209 | −1.875 |  |  | 
Nc1ccc(-c2cccc3c(=O)cc(N4CCOCC4)oc23)cc1 [LY 294002,4-NH2] | 3.33 | 7.54 | 5.435 |  |  | 
O=C1NC(=O)C(c2c[nH]c3ccccc23)=C1c1c[nH]c2ccccc12 [Bisindolylmaleimide IV] | −2.073 | −2.336 | −2.205 |  |  | 
IKK-2 Inhibitor XI | −4.485 | −6.012 | −5.248 |  |  | 
O=C1c2ccccc2-[n+]2ccc3c([nH]c4ccccc43)c21 [Fascaplysin, synthetic] | −6.289 | −8.222 | −7.256 |  |  | 
CNc1cc2c(Nc3cccc(Br)c3)ncnc2cn1 [PD 158780] | 0.3787 | 0.8816 | 0.6302 |  |  | 
Polo-like Kinase Inhibitor I | −0.8886 | 0.6237 | −0.1325 |  |  | 
O=C1NC(=O)c2cc(Nc3ccc(F)cc3)c(Nc3ccc(F)cc3)cc21 [PKCbII/EGFR Inhibitor] | −0.838 | 0.616 | −0.111 |  |  | 
O=C1NC(=O)c2c1c(-c1ccccc1Cl)cc1[nH]c3ccc(O)cc3c21 [Wee1 Inhibitor] | −0.6621 | −2.209 | −1.436 |  |  | 
Cc1cc(C)c(/C=C2\C(=O)Nc3ccccc32)[nH]1 [VEGF Receptor 2 Kinase Inhibitor III] | −0.2089 | −2.04 | −1.124 |  |  | 
O=C1NC(=O)C(c2cn(CCCO)c3ncccc23)=C1c1cnccn1 [GSK-3b Inhibitor XI] | 5.72 | 4.871 | 5.296 |  |  | 
Cn1c2ccccc2c2c3c(c4c5ccccc5n(CCC#N)c4c21)CNC3=O [G? 6976] | −6.424 | −4.191 | −5.308 |  |  | 
Cl.Cl.N=C(N)NCCNS(=O)(=O)c1cccc2cnccc12 [HA 1004, Dihydrochloride] | 0.08457 | −0.6711 | −0.2933 |  |  | 
c1ccc(-c2[nH]ncc2-c2ccnc3ccccc23)nc1 [TGF-b RI Kinase Inhibitor] | −0.7181 | −1.933 | −1.326 |  |  | 
O=C1c2ccccc2-c2n[nH]c3cccc1c23 [JNK Inhibitor II] | 0.4426 | 0.5814 | 0.512 |  |  | 
